In patent US7994140B2, “Classes of compounds that interact with GPCRs” (Alchemia Limited, priority 2002, dated 2011):

biological target: T1, MC4 (Homo sapiens, UniProt P32245); experiment: GPCR radioligand binding (RLB) assay, melanocortin MC4, [125I]NDP-αMSH; details: 4.0 micromolar compound
T1 construct: purchased Perkin Elmer BioSignal; host or cells: HEK 293
Procedure: Recombinant human receptors expressed in HEK 293 cells were used for all experiments. Receptor membrane preparations were purchased from Perkin Elmer BioSignal. The labelled ligand used in somatostatin GPCR RLB assays was [^125I]SST-14 and in melanocortin assays was [^125I]NDP-αMSH. All assays were done in a 96-well plate format using either glass fiber filter mats or filter plates. All reagents purchased were of the highest quality.
Specific assay buffer, incubation and washing conditions were optimized for each receptor however they all followed the same general format. The procedures for both filter mat and filter plate formats are based on the receptor manufacturers recommendations or those described extensively in the literature. The procedures are briefly outlined below.
In assays where filter mats are used we incubate receptor membranes, assay buffer and [^125I] labelled ligand in 96 well microplates. Add compounds to incubation mixture and continue incubation for optimized period. Presoak Filter mat GF/B in 0.5% PEI for ˜2 hr at 4° C. On completion of assay mixture incubation add additional 100 μL/well of assay buffer immediately prior to filtration. Filter the assay mixture onto the GF/B filter mat using a cell harvester. Dry the filter mats prior to sealing them into a scintillation counting bag with scintillant. Radioactivity in each well is detected by liquid scintillation counting.
In assays where filter plates are used Multiscreen glass fiber filter plates (Millipore, Cat No MAFCNOB10) are precoated with 0.5% PEI for ˜2 hr at 4° C. All wells are then washed with 200 µl/well assay buffer and filtered using the Multiscreen Separation System. Subsequently receptor membranes, assay buffer and labelled ligands are added to the wells and equilibrated. Compounds for testing are then added to the mixture and incubation is continued for an optimized time. Plates are then put into the Multiscreen Separation System and the assay mixture is filtered through the plate under vacuum. Each well is then washed several times with assay buffer. Plates are then dried prior to putting sealing tape onto the bottom of the plate. Scintillant is added to each well and radioactivity measured by liquid scintillation counting.
Raw data was analysed according to standard methods using either GraphPad Prism software or IDDBS ActivityBase software.

T1 sequence (P32245 whole entry): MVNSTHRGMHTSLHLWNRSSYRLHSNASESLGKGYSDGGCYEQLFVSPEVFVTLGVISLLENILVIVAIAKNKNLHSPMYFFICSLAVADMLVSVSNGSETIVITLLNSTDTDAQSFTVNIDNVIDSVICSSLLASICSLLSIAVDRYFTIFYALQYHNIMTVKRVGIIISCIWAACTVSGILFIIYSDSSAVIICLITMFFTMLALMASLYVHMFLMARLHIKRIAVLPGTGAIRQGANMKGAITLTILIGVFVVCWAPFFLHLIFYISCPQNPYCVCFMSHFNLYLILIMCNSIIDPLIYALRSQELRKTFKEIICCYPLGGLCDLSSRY

Row | Compound | MC4 Inhibition at 4.0 Micromolar
1 | COC1C(O)C(COCc2ccc3ccccc3c2)OC(OCc2ccc(Cl)cc2)C1NC(=O)C(N)CN (stereo not shown) [Compound 342] | + (Indicates inhibition greater than . . . 50%)
2 | COC1C(O)C(COCc2ccc3ccccc3c2)OC(OCc2ccc(Cl)cc2)C1NCC(=O)C1CCCN1 (stereo not shown) [Compound 343] | + (Indicates inhibition greater than . . . 50%)
3 | COC1C(O)C(COCc2ccc3ccccc3c2)OC(OCc2ccc(Cl)cc2)C1NC(=O)C1CCCN(C(=N)N)C1 (stereo not shown) [Compound 344] | + (Indicates inhibition greater than . . . 50%)
4 | COC1C(O)C(COCc2ccc3ccccc3c2)OC(OCc2ccc(Cl)cc2)C1NC(=O)CNC(=N)N (stereo not shown) [Compound 345] | + (Indicates inhibition greater than . . . 50%)
5 | COC1C(O)C(COCc2ccc3ccccc3c2)OC(OCc2ccc(Cl)cc2)C1NC(=O)C(N)CN (stereo not shown) [Compound 346] | + (Indicates inhibition greater than . . . 50%)
6 | COC1C(O)C(COCc2ccc3ccccc3c2)OC(OCc2ccc(Cl)cc2)C1NCC(=O)C1CCCN1 (stereo not shown) [Compound 347] | + (Indicates inhibition greater than . . . 50%)
7 | COC1C(O)C(COCc2ccc3ccccc3c2)OC(OCc2ccc(Cl)cc2)C1NC(=O)C1CCN(C(=N)N)CC1 (stereo not shown) [Compound 348] | + (Indicates inhibition greater than . . . 50%)

same assay, conditions: 10 micromolar compound; recombinant human receptor membranes (HEK 293)

Row | Compound | MC4 inhibition at 10 micromolar
8 | COC1C(O)C(COCc2ccc(-c3ccccc3)cc2)OC(OCc2ccc(Cl)cc2)C1NC(=O)CNC(=N)N (stereo not shown) [Compound 83] | + (Indicates inhibition greater than . . . 50%)
9 | COC1C(O)C(COCc2ccc(-c3ccccc3)cc2)OC(OCc2ccc(Cl)cc2)C1NC(=O)CCCN (stereo not shown) [Compound 85] | + (Indicates inhibition greater than . . . 50%)
10 | CO[C@H]1[C@H](O)[C@@H](COCc2ccc(Cl)cc2)OC(OCc2ccc(Cl)cc2)[C@@H]1NC(=O)CNC(=N)N (stereo partly shown) [Compound 92] | + (Indicates inhibition greater than . . . 50%)
11 | CO[C@H]1[C@H](O)[C@@H](COCc2ccc(Cl)cc2)OC(OCc2ccc(Cl)cc2)[C@@H]1NC(=O)CCNC(=N)N (stereo partly shown) [Compound 93] | + (Indicates inhibition greater than . . . 50%)
12 | CO[C@H]1[C@H](O)[C@@H](COCc2ccc(Cl)cc2)OC(OCc2ccc(Cl)cc2)[C@@H]1NC(=O)CCCNC(=N)N (stereo partly shown) [Compound 95] | + (Indicates inhibition greater than . . . 50%)
13 | CO[C@H]1[C@H](O)[C@@H](COCc2ccc(-c3ccccc3)cc2)OC(OCCc2ccccc2)[C@@H]1NC(=O)CNC(=N)N (stereo partly shown) [Compound 96] | + (Indicates inhibition greater than . . . 50%)
14 | CO[C@H]1[C@H](O)[C@@H](COCc2ccc(-c3ccccc3)cc2)OC(OCCc2ccccc2)[C@@H]1NC(=O)CCNC(=N)N (stereo partly shown) [Compound 97] | + (Indicates inhibition greater than . . . 50%)
15 | CO[C@H]1[C@H](O)[C@@H](COCc2ccc(-c3ccccc3)cc2)OC(OCCc2ccccc2)[C@@H]1NC(=O)CCCNC(=N)N (stereo partly shown) [Compound 99] | + (Indicates inhibition greater than . . . 50%)
16 | CO[C@H]1[C@H](O)[C@@H](COCc2ccc3ccccc3c2)OC(OCCc2ccccc2)[C@@H]1NC(=O)CNC(=N)N (stereo partly shown) [Compound 100] | + (Indicates inhibition greater than . . . 50%)
17 | CO[C@H]1[C@H](O)[C@@H](COCc2ccc3ccccc3c2)OC(OCCc2ccccc2)[C@@H]1NC(=O)CCNC(=N)N (stereo partly shown) [Compound 101] | + (Indicates inhibition greater than . . . 50%)
18 | CO[C@H]1[C@H](O)[C@@H](COCc2ccc(Cl)cc2)OC(OCCc2ccccc2)[C@@H]1NC(=O)CNC(=N)N (stereo partly shown) [Compound 104] | + (Indicates inhibition greater than . . . 50%)
19 | CO[C@H]1[C@H](O)[C@@H](COCc2ccc(Cl)cc2)OC(OCCc2ccccc2)[C@@H]1NC(=O)CCNC(=N)N (stereo partly shown) [Compound 105] | + (Indicates inhibition greater than . . . 50%)
20 | CO[C@H]1[C@H](O)[C@@H](COCc2ccc(Cl)cc2)OC(OCCc2ccccc2)[C@@H]1NC(=O)CCCNC(=N)N (stereo partly shown) [Compound 107] | + (Indicates inhibition greater than . . . 50%)
21 | CO[C@H]1[C@H](O)[C@@H](COCc2cccc(O)c2)OC(OCc2ccc(-c3ccccc3)cc2)[C@@H]1NC(=O)CNC(=N)N (stereo partly shown) [Compound 108] | + (Indicates inhibition greater than . . . 50%)
22 | CO[C@H]1[C@H](O)[C@@H](COCc2cccc(O)c2)OC(OCc2ccc(Cl)cc2)[C@@H]1NC(=O)CCNC(=N)N (stereo partly shown) [Compound 110] | + (Indicates inhibition greater than . . . 50%)
23 | CO[C@H]1[C@H](O)[C@@H](COCc2ccc(-c3ccccc3)cc2)OC(OCc2cccc(O)c2)[C@@H]1NC(=O)CNC(=N)N (stereo partly shown) [Compound 112] | + (Indicates inhibition greater than . . . 50%)
24 | CO[C@H]1[C@H](O)[C@@H](COCc2ccc(-c3ccccc3)cc2)OC(OCc2cccc(O)c2)[C@@H]1NC(=O)CCNC(=N)N (stereo partly shown) [Compound 113] | + (Indicates inhibition greater than . . . 50%)
25 | CO[C@H]1[C@H](O)[C@@H](COCc2ccc(-c3ccccc3)cc2)OC(OCc2cccc(O)c2)[C@@H]1NC(=O)CCCN (stereo partly shown) [Compound 114] | + (Indicates inhibition greater than . . . 50%)

Row | Compound | MC4 inhibition at 10 micromolar
26 | CO[C@H]1[C@H](O)[C@@H](COCc2ccc3ccccc3c2)OC(OCc2cccc(O)c2)[C@@H]1NC(=O)CCCNC(=N)N (stereo partly shown) [Compound 115] | + (Indicates inhibition greater than . . . 50%)
27 | CO[C@H]1[C@H](O)[C@@H](COCc2ccc3ccccc3c2)OC(OCc2cccc(O)c2)[C@@H]1NC(=O)CCNC(=N)N (stereo partly shown) [Compound 116] | + (Indicates inhibition greater than . . . 50%)
28 | CO[C@H]1[C@H](O)[C@@H](COCc2ccc3ccccc3c2)OC(OCc2cccc(O)c2)[C@@H]1NC(=O)CCCNC(=N)N (stereo partly shown) [Compound 117] | + (Indicates inhibition greater than . . . 50%)
29 | CSC1OC(COCc2ccc3ccccc3c2)C(O)C(OCc2ccc(-c3ccccc3)cc2)C1NC(=O)CN (stereo not shown) [Compound 185] | + (Indicates inhibition greater than . . . 50%)
30 | CSC1OC(COC(=O)Cc2ccccc2)C(O)C(OCc2cccc(N)c2)C1NCc1ccccc1 (stereo not shown) [Compound 308] | + (Indicates inhibition greater than . . . 50%)
31 | CSC1OC(COC(=O)c2c[nH]c3ccccc23)C(O)C(OCc2cccc(N)c2)C1NCc1ccccc1 (stereo not shown) [Compound 309] | + (Indicates inhibition greater than . . . 50%)
32 | CSC1OC(COC(=O)c2c[nH]c3ccccc23)C(O)C(OCc2cccc(N)c2)C1NCc1ccc(Cl)cc1 (stereo not shown) [Compound 314] | + (Indicates inhibition greater than . . . 50%)
33 | CSC1O[C@H](COCc2ccccc2)[C@@H](O)[C@H](OCc2cccc(N)c2)[C@H]1NC(=O)Cc1ccccc1 (stereo partly shown) [Compound 317] | + (Indicates inhibition greater than . . . 50%)
34 | CSC1O[C@H](COCc2ccccc2)[C@@H](O)[C@H](OCc2cccc(N)c2)[C@H]1NC(=O)c1c[nH]c2ccccc12 (stereo partly shown) [Compound 318] | + (Indicates inhibition greater than . . . 50%)
35 | CSC1O[C@H](COCc2ccc(Cl)cc2)[C@@H](O)[C@H](OCc2cccc(N)c2)[C@H]1NC(=O)c1c[nH]c2ccccc12 (stereo partly shown) [Compound 323] | + (Indicates inhibition greater than . . . 50%)
36 | CSC1O[C@H](COCc2ccc(Cl)cc2)[C@@H](O)[C@H](OCc2cccc(N)c2)[C@H]1NC(=O)CCC1CNc2ccccc21 (stereo partly shown) [Compound 325] | + (Indicates inhibition greater than . . . 50%)
37 | CSC1OC(COCc2cccc(N)c2)C(O)C(OCc2ccccc2)C1NC(=O)c1c[nH]c2ccccc12 (stereo not shown) [Compound 328] | + (Indicates inhibition greater than . . . 50%)
38 | CSC1OC(COCc2cccc(N)c2)C(O)C(OCc2ccc(Cl)cc2)C1NC(=O)CCC1CNc2ccccc21 (stereo not shown) [Compound 332] | + (Indicates inhibition greater than . . . 50%)
39 | CSC1O[C@H](COCc2cccc(N)c2)[C@@H](O)[C@H](OCc2ccccc2)[C@H]1NC(=O)c1ccccc1 (stereo partly shown) [Compound 333] | + (Indicates inhibition greater than . . . 50%)
40 | CSC1O[C@H](COCc2cccc(N)c2)[C@@H](O)[C@H](OCc2ccccc2)[C@H]1NC(=O)Cc1ccccc1 (stereo partly shown) [Compound 334] | + (Indicates inhibition greater than . . . 50%)
41 | CSC1O[C@H](COCc2cccc(N)c2)[C@@H](O)[C@H](OCc2ccccc2)[C@H]1NC(=O)/C=C/c1ccccc1 (stereo partly shown) [Compound 335] | + (Indicates inhibition greater than . . . 50%)
42 | CSC1O[C@H](COCc2cccc(N)c2)[C@@H](O)[C@H](OCc2ccc(Cl)cc2)[C@H]1NC(=O)/C=C/c1ccccc1 (stereo partly shown) [Compound 340] | + (Indicates inhibition greater than . . . 50%)

same assay, conditions: 10 micromolar; Example Library 4

Row | Compound | MC4 inhibition at 10 micromolar
43 | COCC1OC(OCCc2ccccc2)C(NC(=O)CNC(=N)N)C(OCc2ccccc2)C1O (stereo not shown) [Compound 261] | + (Indicates inhibition greater than . . . 50%)
